Experimental data: patent US9867798B2, “Ladostigil therapy for immunomodulation” (priority 2012, dated 2018)

Columns and labels:
[1] = tested on: mice with DSS-induced colitis; assay: Acute colitis induced by DSS in mice: body weight, stool, bleeding, DAI, colon length; assay type: in vivo, BALB/c OlaHsd mice
Procedure: (§1) BALB/c OlaHsd male mice aged 8-9 weeks and weighing 25-30 g were purchased from Harlan (Jerusalem, Israel) and housed in standard cages of up to 5 per cage in the pathogen free Animal Facility of the Institute for Drug Research. All experiments were performed in accordance with the Principles of Laboratory Animal Care (NIH publication #85-23, revised 1985) protocols MD-09-12197-4. Acute colitis was induced in mice by administration of 5% DSS solution (M.Wt.=[…], MP Biomedicals, LLC, Solon, Ohio, USA) in water for 8 days. The DSS solution was freshly prepared every day. Mice were provided with food and water or DSS solution ad libitum during the experiment. They were divided into groups of 10 as follows: Vehicle control group: mice drank water and were given water (1 ml/100 gm) once daily by gavage for 8 days; Drug control group: mice drank water and were given ladostigil (10 mg/kg) by gavage once daily for 8 days. DSS untreated group: mice drank 5% DSS for 7 days and water on the 8th day and were given water (1 ml/100 g) once daily by gavage for 8 days. Drug treated group: mice drank 5% DSS followed by water as above and were given ladostigil (5 or 10 mg/kg) by gavage once daily for 8 days. The volume of 5% DSS solution consumed was measured for each group of mice and the average volume/mouse was calculated. On the eighth day, the mice were anesthetized by CO2 and sacrificed by cervical dislocation 2 h after the last dose of ladostigil. Samples of colon and spleen were taken for measurement of cytokines MPO, cytokines and ChE activity.
Body weight, stool consistency and the presence of blood in the stools was recorded daily for each mouse. […] The score ranged between 0-4 for all three parameters and was composed as follows: Weight loss: none=0, 1-5%=1, 5-10%=2, 10-20%=3, >20%=4. Percent of weight loss on days 7 and 8 relative to the first day was calculated for all the groups. […] Bleeding: none=0, hemoccult=2, gross bleeding=4. The maximum DAI score was 4 based on a combination of scores of weight loss (relative to that on the first day of the experiment), stool consistency and bleeding, divided by 3. After sacrifice the length of the colon segment from the cecum to the rectum was measured.

[2] = tested on: cholinesterase (AChE and BuChE); assay: Cholinesterase activity in spleen and colon of mice drinking DSS (Ellman); assay type: in vivo; settings: rivastigmine 1 mg/kg/day
Procedure: as §1
(§2) In experiments on the effect of chronic treatment with ladostigil on ChE activity in mice drinking DSS, the spleen was rapidly removed as described above, together with a colon segment of about 0.5 cm in length taken from the proximal area. Spleen and colon segments were washed in cold phosphate buffered saline (PBS) before they were frozen at −80° C. For assay, the tissue was unfrozen and weighed and PBS was added to each tissue at a ratio of 1 mg tissue to 1 ml. Tissues were homogenized at a speed of 24,000 rpm in cold phosphate buffer pH 7 containing 0.1% Triton and centrifuged at 14000 rpm. Aliquots of plasma and the supernatant from the spleen and colon were incubated with acetylthiocholine and dinitro benzoic acid in phosphate buffer pH 7 and the rate of development of the yellow color was measured as described by Ellman et al, (1961). Percent inhibition of ChE activity was calculated by comparison with that of control mice given water by gavage. Protein concentration was determined by means of by Pierce BCA Protein Assay Kit (Thermo Scientific, USA) according to the manufacturer's instructions. It is noted, that ChE activity in the colon and spleen of mice is attributed mainly to that of AChE while that in mouse plasma is mainly attributable to BuChE.

[3] = tested on: LPS-induced TNF-α, IL-1β and IL-6 in spleen; assay: Cytokines in spleen of mice injected with LPS, comparison to rivastigmine (Example 5); assay type: in vivo, Balb/c mice; settings: for IL-1β in spleen / IL-6 in spleen / TNF-α in spleen: four hours
Procedure: Male Balb/c mice (aged 8-9 weeks, weighing 25-30 gm) were given ladostigil (10 or 20 mg/kg) or rivastigmine (0.5 or 1 mg/kg) by gavage, or water (1 ml/100 g), followed 15 min later by an intra-peritoneal injection of LPS (10 mg/kg). Control mice were given LPS and water by gavage (1 ml/100 g). For measurement of cytokine levels in the spleen and blood the mice were sacrificed 4 h after drug administration, blood collected in heparinized tubes and centrifuged to obtain plasma and the spleen was rapidly removed and weighed. Plasma and spleen were frozen in liquid nitrogen and stored at −80° C. until use. For measurement of cytokine levels, the tissue was diluted in PBS containing 0.8% NaCl, 0.144% NaHPO4, 0.024% KH2PO4 and protease inhibitor cocktail (Sigma Israel, P8340) and homogenized in an Ultra-TURRAX® homogenizer at a speed of 24,000 rpm, centrifuged at 14000 g for 15 min at 4° C. Cytokines were detected in the supernatant by using ELISA kits for cytokines IL-1β, IL-6, and TNF-α (Biolegend) following the manufacturer's protocol. Each experiment was performed twice with 8 replicate measures in each experiment. Protein concentration in each sample was determined with Bradford reagent (Bio-RAD, 500-0006).

ChE = assay: Cholinesterase inhibition in plasma and spleen of LPS injected mice (Example 5); assay type: in vivo, Balb-C mice; settings: for Inhibition of ChE, plasma / Inhibition of ChE, spleen: 60 min after oral administration, LPS injected mice
Procedure: as §2
For the LPS experiment involving a single administration, ladostigil (10 or 20 mg/kg) in a volume of 1 ml/100 g or water (1 ml/100 g) were given by gavage to groups of 6-8 Balb-C male mice weighing 24-30 g and LPS as described above. […] Blood was taken into heparinized tubes and centrifuged at 14000 rpm at room temperature for 4 min to provide plasma and the spleen was rapidly removed, weighed, frozen in liquid nitrogen and stored at −80° C. until assayed. It is noted, that ChE inhibition in mouse plasma is mainly attributed to BuChE activity, and in mouse spleen—mainly to AChE activity.
Percent inhibition of ChE activity was calculated by comparison with that of control mice given water by gavage as described in Example 1 above.

[4] = rivastigmine 0.5 mg/kg + LPS 10 mg/kg
[5] = rivastigmine 1 mg/kg + LPS 10 mg/kg

## CCN(C)C(=O)Oc1cccc([C@H](C)N(C)C)c1 [Rivastigmine, reference compound]
[1]; 5% DSS, rivastigmine
  Prevention of weight loss induced by DSS: did not prevent the weight loss
[1]; mice given 1 mg/kg/day
  Body weight decrease: 4.7%
[2]
  Inhibition of colonic ChE: > 60%
[3]; rivastigmine 0.5 mg/kg + LPS
  Effect on levels of the three cytokines in spleen: had no effect on levels of any of the three cytokines
[3]; [4]
  IL-1β in spleen: 551 ± 31 pg/mg
  IL-6 in spleen: 569 ± 89 pg/mg
  TNF-α in spleen: 16.8 ± 2.5 pg/mg
[3]; rivastigmine 1 mg/kg + LPS
  Effect on cytokine levels in spleen: significantly reduced IL-1β and IL-6, but not of TNF-α
[3]; [5]
  IL-1β in spleen: 440 ± 40 pg/mg
  IL-6 in spleen: 462 ± 66 pg/mg
  TNF-α in spleen: 16.5 ± 2.2 pg/mg
ChE; rivastigmine 0.5 mg/kg
  Inhibition of ChE, plasma: 28 ± 4.5 %
  Inhibition of ChE, spleen: 32.6 ± 5.6 %
ChE; rivastigmine 1 mg/kg
  Inhibition of ChE in plasma and spleen, compared with rivastigmine 0.5 mg/kg: about twice as much
  Inhibition of ChE, plasma: 56.8 ± 6.1 %
  Inhibition of ChE, spleen: 65.8 ± 3.2 %
